# From patent publication US8093232B2, “2α-methyl-19-nor-(20S)-1α-hydroxy-bishomopregnacalciferol and its uses” (Wisconsin Alumni Research Foundation, priority 2004, dated 2012)
# What was measured:
# [1] = test system: vitamin D-deficient rats; test: Intestinal calcium transport (everted gut sac) in vitamin D-deficient rats; format: in vivo, rat; conditions: for intestinal calcium transport: everted gut sac, FIG. 5
# Method: (§1) Intestinal Calcium Transport and Bone Calcium Mobilization
# (§2) Male, weanling Sprague-Dawley rats were placed on Diet 11 (0.47% Ca) diet+AEK for one week followed by Diet 11 (0.02% Ca)+AEK for 3 weeks. The rats were then switched to a diet containing 0.47% Ca for one week followed by two weeks on a diet containing 0.02% Ca. Dose administration began during the last week on 0.02% calcium diet. Four consecutive ip doses were given approximately 24 hours apart. Twenty-four hours after the last dose, blood was collected from the severed neck and the concentration of serum calcium determined as a measure of bone calcium mobilization. The first 10 cm of the intestine was also collected for intestinal calcium transport analysis using the everted gut sac method.
# [2] = test system: Human promyelocytic leukemia (HL60) cells; test: HL-60 cell differentiation (nitro blue tetrazolium reduction); format: cell-based; conditions: FIG. 2; for EC50: HL60 cells, 4 days, NBT reduction
# Method: The study drugs were dissolved in ethanol and the concentrations determined using UV spectrophotometry. Serial dilutions were prepared so that a range of drug concentrations could be tested without changing the final concentration of ethanol (≦0.2%) present in the cell cultures.
# Human promyelocytic leukemia (HL60) cells were grown in RPMI-1640 medium containing 10% fetal bovine serum. The cells were incubated at 37° C. in the presence of 5% CO2.
# HL60 cells were plated at 1.2×10^5 cells/ml. Eighteen hours after plating, cells in duplicate were treated with drug. […] The percentage of differentiated cells was determined by counting a total of 200 cells and recording the number that contained intracellular black-blue formazan deposits. Verification of differentiation to monocytic cells was determined by measuring phagocytic activity (data not shown).
# [3] = test system: vitamin D-deficient rats; test: Bone calcium mobilization (serum calcium) in vitamin D-deficient rats; format: in vivo, rat
# Method: as §1, §2
# [4] = test system: 24-hydroxylase (24 Ohase) gene promoter; test: In vitro transcription assay (24-hydroxylase promoter luciferase reporter in ROS 17/2.8 bone cells); format: cell-based; conditions: FIG. 3
# Method: In Vitro Transcription Assay
# Transcription activity was measured in ROS 17/2.8 (bone) cells that were stably transfected with a 24-hydroxylase (24 Ohase) gene promoter upstream of a luciferase reporter gene (Arbour et al., 1998). Cells were given a range of doses. Sixteen hours after dosing the cells were harvested and luciferase activities were measured using a luminometer.
# RLU=relative luciferase units.
# [5] = target: T1, full-length recombinant rat vitamin D receptor (Rattus norvegicus, UniProt P13053); test: Vitamin D receptor competitive binding with [3H]-1,25(OH)2D3; conditions: full-length recombinant rat VDR, FIG. 1
# T1 construct: Full-length recombinant rat receptor was expressed in E. coli BL21 (DE3) Codon Plus RIL cells; histidine tag (C); made in house; host or cells: E. coli BL21 (DE3) Codon Plus RIL
# T1 sequence (P13053 1-423): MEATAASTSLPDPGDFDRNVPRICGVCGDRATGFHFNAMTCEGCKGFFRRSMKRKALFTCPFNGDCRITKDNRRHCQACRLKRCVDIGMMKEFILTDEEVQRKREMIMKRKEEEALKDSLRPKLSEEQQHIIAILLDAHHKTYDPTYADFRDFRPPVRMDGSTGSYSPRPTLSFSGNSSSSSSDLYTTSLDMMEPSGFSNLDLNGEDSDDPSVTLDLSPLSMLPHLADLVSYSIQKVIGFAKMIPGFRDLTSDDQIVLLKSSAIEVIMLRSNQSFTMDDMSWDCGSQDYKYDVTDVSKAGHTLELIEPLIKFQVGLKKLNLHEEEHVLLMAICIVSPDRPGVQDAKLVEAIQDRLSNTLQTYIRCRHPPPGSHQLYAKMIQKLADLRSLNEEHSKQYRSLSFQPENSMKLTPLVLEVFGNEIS
# Description: Vitamin D Receptor Binding
# Full-length recombinant rat receptor was expressed in E. coli BL21 (DE3) Codon Plus RIL cells and purified to homogeneity using two different column chromatography systems. The first system was a nickel affinity resin that utilizes the C-terminal histidine tag on this protein. The protein that was eluted from this resin was further purified using ion exchange chromatography (S-Sepharose Fast Flow). Aliquots of the purified protein were quick frozen in liquid nitrogen and stored at −80° C. until use. For use in binding assays, the protein was diluted in TEDK50 (50 mM Tris, 1.5 mM EDTA, pH7.4, 5 mM DTT, 150 mM KCl) with 0.1% Chaps detergent. The receptor protein and ligand concentration were optimized such that no more than 20% of the added radiolabeled ligand was bound to the receptor.
# Radiolabeled and unlabeled ligands were added to 100 mcl of the diluted protein at a final ethanol concentration of ≦10%, mixed and incubated overnight on ice to reach binding equilibrium. The following day, 100 mcl of hydroxylapatite slurry (50%) was added to each tube and mixed at 10-minute intervals for 30 minutes. The hydroxylapaptite was collected by centrifugation and then washed three times with Tris-EDTA buffer (50 mM Tris, 1.5 mM EDTA, pH 7.4) containing 0.5% Titron X-100. […] Total binding was determined from the tubes containing only radiolabeled ligand.
"EC50 ([4]; ROS 17/2.8 cells, 24-OHase promoter-luciferase, 16 h, read-out: EC50, transcriptional activity in bone cells) [nM]","EC50 ([2]; Homo sapiens, HL-60, 96 h) [nM]","binding to the receptor as compared to the standard 1,25-(OH)2D3 [5]","Ki ([5]; read-out: Ki, competition with [3H]-1,25(OH)2D3 for binding to the vitamin D receptor) [nM]",Compound,intestinal calcium transport ([1]; 260 pmol/day),EC50 [2] [nM],"serum calcium levels (bone calcium mobilization) ([3]; rats on 0.02% Ca diet, 4 consecutive ip doses, all dosages, FIG. 4)","intestinal calcium transport ([1]; 87 pmol/day, 260 pmol/day or 780 pmol/day)",intestinal calcium transport ([1]; 2340 pmol/day),"activity in stimulating intestinal calcium transport as compared to 1,25(OH)2D3 ([1]; FIG. 5, overall)","transcriptional activity in bone cells compared to 1α,25-dihydroxyvitamin D3 [4]","potency on HL-60 cell differentiation compared to 1,25(OH)2D3 [2]","mobilization of bone calcium ([3]; 87 pmol/day for 4 consecutive days, rats on 0.02% Ca diet, FIG. 4)","mobilization of bone calcium ([3]; 260 pmol/day, 780 pmol/day and 7020 pmol/day, rats on 0.02% Ca diet, FIG. 4)","bone calcium mobilization activity as compared to 1,25(OH)2D3 ([3]; FIG. 4, overall)"
,,,,"C=C1/C(=C\C=C2/CCC[C@]3(C)[C@@H]([C@H](C)CCCC(C)(C)O)CC[C@@H]23)C[C@@H](O)C[C@@H]1O [1,25(OH)2D3, 1α,25-dihydroxyvitamin D3, reference compound]",promotes a significant increase,3.6,increased serum calcium levels at all dosages,,,,,,,,
4.4,37,bound slightly less,1.6,"CCC(C)C1CCC2C(=CC=C3CC(O)C(C)C(O)C3)CCCC21C [2α-methylbisP, 2α-methyl-19-nor-(20S)-1α-hydroxy-bishomopregnacalciferol]",,,,does not promote intestinal calcium transport,significant intestinal calcium transport activity was recorded,very little activity,about the same transcriptional activity,"almost as potent as 1,25(OH)2D3",did not result in mobilization of bone calcium,without any substantial effect,very little bone calcium mobilization activity
